Laboratory results taken from patent US9883671B2, “Mixture of natural or nature-identical alcohols with improved effectiveness” (L'AIR LIQUIDE, SOCIETE ANONYME POUR L'ETUDE ET …, priority 2012, dated 2018).

Test system: inoculation solution of test organisms: Staphylococcus aureus, Kocuria rhizophila, Enterobacter gergoviae, Escherichia coli, Klebsiella pneumoniae, Pseudomonas …
Assay: Determination of the preserving effect of chemical preservatives in cosmetic formulations (Koko test), Carbopol gel
Type: cell-based, bacteria, yeast and moulds (mixed inoculum, ATCC strains)
Details: 0.1% by weight; inferred from Experiment 9 compared with Experiment 2
Procedure: Method A—Determination of the Preserving Effect of Chemical Preservatives in Cosmetic Formulations (Koko Test) The test described below is carried out to determine the preserving effect of chemical preservatives in cosmetic formulations. Using the described method, the aim is to test the effectiveness of chemical preservatives with regard to the pack preservation for cosmetic formulations. For this purpose, the preservatives to be tested are added in various concentrations to the unpreserved samples in different experimental batches. A continuous microbial burden is achieved by periodically inoculating the experimental batches. In parallel to the inoculation, streaks of the individual batches are in each case made immediately beforehand. Assessment is made by reference to the microbial growth of the streaks. […] In each case, 25 g of the cosmetic to be tested are weighed into wide-necked bottles with screw closure (LDPE). […] The preserving effect of the individual product concentrations is assessed in a semi-quantitative method by means of the growth of the individual streaks. […] The sample is well-preserved according to criterion A if it exists under the laboratory conditions given above for a period of six weeks without microbial attack of the sample batches, i.e. no microbial growth can be detected even after the sixth inoculation. […]

CCCCCCCCCCCO [Experiment 1-undecanol, 1-undecanol]
Preserving effect of the substance by itself, inferred: no effect
